Patent US8030518B2, “1,4 diamino bicyclic retigabine analogues as potassium channel modulators” (Valeant Pharmaceuticals International, priority 2006, dated 2011)

Tests used:
[1] = target: T1, KCNQ2/3 heteromultimers (Rattus norvegicus, UniProt O88943+O88944); experiment: cell-based Rb+ efflux assay in PC-12 cells; details: Rb+ efflux cellular assay
T1 construct: endogenous in cells; host or cells: PC-12 cells differentiated with NGF-7s; no transfection described
Procedure: Compounds of this invention formula were evaluated for activity toward potassium channels in a cell-based Rb^+ efflux assay. This cellular bioassay is believed to faithfully represent the M channel activities identified with KCNQ2/3 heteromultimers. […] Additionally, antiseizure activity in vivo was evaluated in a mouse maximal electroshock seizure (MES) model, and neurotoxicities were determined from a rotorod neurocognitive motor impairment model and open field observation.
PC-12 cells were grown at 37° C. and 5% CO2 in DMEM/F12 Medium (Dulbecco's Modified Eagle Medium with Nutrient Mix F-12, available from Invitrogen of Carlsbad, Calif.), supplemented with 10% horse serum, 5% fetal bovine serum, 2 mM glutamine, 100 U/ml penicillin, and 100 U/ml streptomycin. They were plated in poly-D-lysine-coated 96-well cell culture microplates at a density of 40,000 cells/well and differentiated with 100 ng/ml NGF-7s for 2-5 days. For the assay, the medium was aspirated, and the cells were washed once with 0.2 ml wash buffer (25 mM HEPES, pH 7.4, 150 mM NaCl, 1 mM MgCl2, 0.8 mM NaH2PO4, 2 mM CaCl2). The cells were then loaded with 0.2 ml Rb^+ loading buffer (wash buffer plus 5.4 mM […], 5 mM glucose) and incubated at 37° C. for 2 h. Attached cells were washed quickly three times with buffer (same as Rb^+ loading buffer, but containing 5.4 mM KCl instead of RbCl) to remove extracellular Rb^+. Immediately following the wash, 0.2 ml of depolarization buffer (wash buffer plus 15 mM KCl solution) with or without compounds was added to the cells to activate efflux of potassium ion channels. After incubation for 10 min at room temperature, the supernatant was carefully removed and collected. Cells were lysed by the addition of 0.2 ml of lysis buffer (depolarization buffer plus 0.1% Triton X-100) and the cell lysates were also collected. If collected samples were not immediately analyzed for Rb^+ contents by atomic absorption spectroscopy (see below), they were stored at 4° C. without any negative effects on subsequent Rb^+ analysis.
The concentrations of Rb^+ in the supernatants (Rb^+Sup) and the cell lysates (Rb^+Lys) were quantified using an ICR8000 flame atomic absorption spectrometer (Aurora Biomed Inc., Vancouver, B.C.) under conditions defined by the manufacturer. Samples 0.05 ml in volume were processed automatically from microtiter plates by dilution with an equal volume of Rb^+ sample analysis buffer and injection into an air-acetylene flame. The amount of Rb^+ in the sample was measured by absorption at 780 nm using a hollow cathode lamp as light source and a PMT detector. A calibration curve covering the range 0-5 mg/L Rb^+ in sample analysis buffer was generated with each set of plates. The percent Rb^+ efflux (F) was defined by F=[Rb^+Sup/(Rb^+Sup+Rb^+Lys)]×100%. […] The efflux (F) and compound concentration relationship was plotted to calculate an EC50 value, a compound's concentration for 50% of maximal Rb^+ efflux. Seizure Model Tests

[2] = tested on: maximal electroshock seizure; experiment: mouse maximal electroshock seizure (MES) test; format: in vivo; set-up: key: A: active; B: inactive; details: ip dosing of 12.5 mg/kg
Description: (§1) The MES testing protocol is based on procedures established at the National Institute of Neurological Disorders and Stroke in conjunction with the Anticonvulsant Screening Program (ASP) at the University of Utah (White, H. S., Woodhead, J. H., Wilcox, K. S., Stables, J. P., Kupferberg, H. J and Wolf, H. H. 2002. “General Principles: Discovery and Preclinical Development of Antiepileptic Drugs,” in Antiepileptic Drugs, 5th Edition, R. H. Levy, ed.; R. H. Mattson, B. S. Meldrum, and E. Perucca. Philadelphia, Lippincott Williams & Wilkins.), The goal of the test is to rapid identify and characterize the in vivo anticonvulsant activity of any compounds that have been shown active in PC-12 cellular based Rb^+ efflux assay.
(§2) Adult male CF-1 albino mice (18-25 g, Charles River Laboratories) are […] used for MES screening of compounds. Male Sprague-Dawley albino rats (100-125 g, Charles River Laboratories) are also used to test anticonvulsant compounds. Animals are permitted to rest and recover from transit for at least 48 hr prior to experimentation. Animals are used for AED testing only once. In some instances, the animals can be anesthetized prior to blood collection or whole brain extraction for pharmacokinetic assay. All animals are maintained and handled as outlined in standard animal care guidelines.
(§3) In the experiments, testing compounds are prepared as suspensions in 0.5% methyl cellulose (Sigma, Cat # M0512, Viscosity 4000 cP at 20° C.) in water, regardless of solubility. Dry powder compounds are initially ground with a glass rod in a test tube in several drops of methyl cellulose to create a paste and to break down any large chunks. After several minutes of grinding, the volume of the suspension is increased to the final concentration desired. The suspension is then sonicated using a Branson sonicator model 3510 in a water bath at room temperature for 15 minutes. Compound suspensions are further vortexed prior to animal dosing. In some of the cases, DMSO is used to initially solubilize compounds in small volumes and then this solution is added to the 0.5% methyl cellulose solution, in order to create more even and less aggregated compound suspensions. The final concentration of DMSO is 3.75%, an amount with no apparent toxicity or neuroprotective effects in our usual rotarod and MES tests. Methyl cellulose/DMSO compound suspensions are identically prepared for intraperitoneally (i.p.)dosing to mice or orally (p.o.) dosing to rats.
Initially the animals are weighed with an electronic scale and then marked. Data recording sheets are generated for each compound assessment. Mice or rats are dosed with the compound suspension at 0.01 mL/g of body weight. The typical injection volume range is between 180-250 μl for mice. Compounds are dosed by i.p. to mice using a 25 or 22 gauge needle, depending on the viscosity of the suspension. Rats are p.o. dosed using a flexible feeding tube, typically starting at a compound dose of 5 mg/kg.
A Rodent Electroconvulsive Stimulator (Model 200, Hamit-Darvin-Freesh, Snow Canyon Clinic, Ivins, Utah) is used for MES testing. A 60-Hz alternating current (50 mA for mice; 150 mA for rats) is delivered for 0.2 seconds through corneal electrodes to the mice. A drop of 0.5% tetracaine (Sigma, Cat. # T-7508) solution is placed on the eye prior to current delivery. The electrodes are subsequently placed gently onto the eyes of the animal and the electrical shock is initiated by triggering through a foot-pedal activator. The animals are restrained by hand and gently released as the shock is delivered and the seizure commences. Animals are monitored for hind limb tonic extension as the end point for this test. Current delivery is recorded as a measure of overall seizure-induction potential. Electrical current delivery can vary from approximately 30-55 mA (mice) or 90-160 mA (rats) depending on impedance in the animal and quality of the current delivery (i.e. correct placement of the electrodes on the cornea). […]

[3] = tested on: maximal electroshock seizure; experiment: rat maximal electroshock seizure (MES) test; format: in vivo
Description: as §1, §2
as §3, with “rats. […]” for “rats.”
A Rodent Electroconvulsive Stimulator (Model 200, Hamit-Darvin-Freesh, Snow Canyon Clinic, Ivins, Utah) is used for MES testing. […] Animals are monitored for hind limb tonic extension as the end point for this test. Current delivery is recorded as a measure of overall seizure-induction potential. […]

SMILES | EC50 [1] | Mouse MES test [2] | ED50 [3]
Cc1cc2c(c(C)c1NC(=O)CC(C)(C)C)CCC2Nc1ccc(F)cc1 (single isomer, unassigned; (-)) [Example 12, (−) N-(1-(4-fluorophenylamino)-4,6-dimethyl-2,3-dihydro-1H-inden-5-yl)-3,3-dimethylbutanamide] | ≤ 1 nM | A | < 20 mg/kg
Cc1cc2c(c(C)c1NC(=O)CC(C)(C)C)CCC2Nc1ccc(C(F)(F)F)cc1 (single isomer, unassigned; (-)) [Example 15, (−) N-(4,6-dimethyl-1-(4-(trifluoromethyl)phenylamino)-2,3-dihydro-1H-inden-5-yl)-3,3-dimethylbutanamide] | ≤ 1 nM | A | < 20 mg/kg
Cc1cc2c(c(C)c1NC(=O)CC(C)(C)C)CCC2Nc1ccc(F)cc1 (stereo not shown) [Example 11, N-(1-(4-fluorophenylamino)-4,6-dimethyl-2,3-dihydro-1H-inden-5-yl)-3,3-dimethylbutanamide] | 1 to 10 nM | A | < 20 mg/kg
Cc1cc2c(c(C)c1NC(=O)CC(C)(C)C)CCC2Nc1ccc(C(F)(F)F)cc1 (stereo not shown) [Example 14, N-(4,6-dimethyl-1-(4-(trifluoromethyl)phenylamino)-2,3-dihydro-1H-inden-5-yl)-3,3-dimethylbutanamide] | 1 to 10 nM | A | < 20 mg/kg
Cc1cc2c(c(C)c1NC(=O)CC(C)(C)C)CCC2Nc1ccc(F)nc1 (stereo not shown) [Example 23, N-(1-(6-fluoropyridin-3-ylamino)-4,6-dimethyl-2,3-dihydro-1H-inden-5-yl)-3,3-dimethylbutanamide] | 50 to 500 nM | A | –
Cc1cc2c(c(C)c1NC(=O)CC(C)(C)C)CCC2Nc1ccc(C(F)(F)F)nc1 (stereo not shown) [Example 24, N-(1-(6-trifluoromethylpyridin-3-ylamino)-4,6-dimethyl-2,3-dihydro-1H-inden-5-yl)-3,3-dimethylbutanamide] | 10 to 50 nM | A | –
